In patent publication US20040105778A1, “Gamma irradiation of solid nanoparticulate active agents” (Elan Pharma International Limited, priority 2002, published 2004):

Assay: Gamma irradiation dosing studies, naproxen assay and degradants
Assay type: physicochemical

COc1ccc2cc([C@H](C)C(=O)O)ccc2c1 [Naproxen (API), naproxen]
Naproxen Assay Average (Control (0 kGy)): 99.07 % w/w
Naproxen Assay Relative to Control (Control (0 kGy)): 100.00
Naproxen Assay Average (gamma dose 5 kGy): 96.38 % w/w
Naproxen Assay Relative to Control (gamma dose 5 kGy): 97.28
Naproxen Assay Average (gamma dose 10 kGy): 100.82 % w/w
Naproxen Assay Relative to Control (gamma dose 10 kGy): 101.77
Naproxen Assay Average (gamma dose 15 kGy): 100.44 % w/w
Naproxen Assay Average (gamma dose 25 kGy): 100.08 % w/w
Naproxen Assay Average (gamma dose 30 kGy): 100.47 % w/w
Naproxen Assay Average (gamma dose 40 kGy): 99.14 % w/w
Naproxen Assay Relative to Control (gamma dose 40 kGy): 100.07
Naproxen Assay Average (gamma dose 50 kGy): 99.49 % w/w
Naproxen Assay Relative to Control (gamma dose 50 kGy): 100.42
